Experimental data reported in patent US12128050B2, “KP372-1-induced DNA damage as a chemotherapeutic approach to treat cancer” (New Mexico Tech University Research Park Corporation, priority 2020, dated 2024).

Assays:
Assay type in all cases: cell-based
MIA PaCa-2 cells [1] = assay: KP372-1 + BMN 673 combination survival / synergy (CompuSyn); conditions: Fa=0.9; 0.075 μM KP372-1 + 1 μM BMN 673 in combination
Experimental: DNA content assay: A modified cell survival assay measuring DNA content over ˜7-day period was utilized. Cells were seeded at 10,000 cells/well in 48-well plates in 0.5 mL of media. The next day, media were aspirated and replaced with 0.5 mL media containing the indicated concentrations of KP372-1 (μM) alone or in combination with 50 μM DIC. The cells were exposed for 2 hours (2 h) and the media were again aspirated and replaced with fresh media (without KP372-1). The cells were then allowed to grow for ˜7 days or until control samples became confluent. Cells were then lysed in 250 μl dI water, then freeze-thawed followed by suspension in 0.5 mL 1× TNE buffer containing Hoechst 33258 fluorescent dye. The DNA content was determined by measuring florescence signal using a Victor X5 plate reader. Fluorescence values of treated samples were normalized to that of control samples and plotted as means±SEM for treated over control (i.e., DMSO) treated (T/C) samples. […]
Synergy calculations: Drug synergy was calculated using CompuSyn 1.0 software (www.combosyn.com). […] Then, cell survival was assessed via DNA content assay similarly to as described above. […] Dose-Reduction Index (DRI) values were calculated using the Chou-Talalay method. Briefly, DRI values are calculated using the following equation: DRI=(Dx)1/(D)1 where (Dx)1 is the dose of the drug alone and (D)1 is the dose of the drug in combination. […]

MIA PaCa-2 cells [2] = assay: DNA content assay (relative survival), MIA PaCa-2; conditions: 2 h
Experimental: (§1) DNA content assay: A modified cell survival assay measuring DNA content over ˜7-day period was utilized. Cells were seeded at 10,000 cells/well in 48-well plates in 0.5 mL of media. […] The cells were exposed for 2 hours (2 h) and the media were again aspirated and replaced with fresh media (without KP372-1). The cells were then allowed to grow for ˜7 days or until control samples became confluent. […] The DNA content was determined by measuring florescence signal using a Victor X5 plate reader. Fluorescence values of treated samples were normalized to that of control samples and plotted as means±SEM for treated over control (i.e., DMSO) treated (T/C) samples. The reported values are the results of the following sample sizes for KP372-1±DIC: MIA PaCa-2 concentration (n=5); Capan-2 concentration (n=3); MIA PaCa-2±siSCR/siNQO1 (n=3); hTERT-HPNE (n=3); PANC-1 (n=3); AsPC-1 (n=4); BxPC-3 (n=3); MIA PaCa-2 time (n=3); Capan-2 time (n=3). The reported values are the results of the following sample sizes for β-lap±DIC: MIA PaCa-2 (n=4) and Capan-2 (n=4).

Capan-2 cells = assay: DNA content assay (relative survival), Capan-2; conditions: 2 h
Experimental: as §1

Structure (SMILES)	dose reduction index (DRI) (MIA PaCa-2 cells [1])	concentration up to which no appreciable toxicity was induced (MIA PaCa-2 cells [2])	concentration up to which no appreciable toxicity was induced (Capan-2 cells)
Cn1ncnc1[C@H]1c2n[nH]c(=O)c3cc(F)cc(c23)N[C@@H]1c1ccc(F)cc1 [BMN 673, talazoparib]	3.99		
CC1(C)CCC2=C(O1)c1ccccc1C(=O)C2=O [β-lap, β-lapachone]		up to 2.0 μM	up to 1.0 μM
